Assay results as given in US7935674B2, “Indole derivatives” (Mitsubishi Tanabe Pharma Corporation, priority 2005, dated 2011).

Legend:
human SGLT2 = target: T1, human SGLT2 (Homo sapiens, UniProt P31639); assay: Assay for SGLT2 inhibition (14C-AMG uptake in CHOK1 cells expressing human SGLT2); assay type: cell-based; details: CHOK1 cells expressing human SGLT2; 14C-AMG uptake, 0.5 mM, 2 hours at 37° C.; read-out: IC50
T1 construct: expressed in transfected cells; host or cells: CHOK1 (Chinese hamster ovary) cells, kept under Geneticin selection
T1 sequence (P31639 1-672): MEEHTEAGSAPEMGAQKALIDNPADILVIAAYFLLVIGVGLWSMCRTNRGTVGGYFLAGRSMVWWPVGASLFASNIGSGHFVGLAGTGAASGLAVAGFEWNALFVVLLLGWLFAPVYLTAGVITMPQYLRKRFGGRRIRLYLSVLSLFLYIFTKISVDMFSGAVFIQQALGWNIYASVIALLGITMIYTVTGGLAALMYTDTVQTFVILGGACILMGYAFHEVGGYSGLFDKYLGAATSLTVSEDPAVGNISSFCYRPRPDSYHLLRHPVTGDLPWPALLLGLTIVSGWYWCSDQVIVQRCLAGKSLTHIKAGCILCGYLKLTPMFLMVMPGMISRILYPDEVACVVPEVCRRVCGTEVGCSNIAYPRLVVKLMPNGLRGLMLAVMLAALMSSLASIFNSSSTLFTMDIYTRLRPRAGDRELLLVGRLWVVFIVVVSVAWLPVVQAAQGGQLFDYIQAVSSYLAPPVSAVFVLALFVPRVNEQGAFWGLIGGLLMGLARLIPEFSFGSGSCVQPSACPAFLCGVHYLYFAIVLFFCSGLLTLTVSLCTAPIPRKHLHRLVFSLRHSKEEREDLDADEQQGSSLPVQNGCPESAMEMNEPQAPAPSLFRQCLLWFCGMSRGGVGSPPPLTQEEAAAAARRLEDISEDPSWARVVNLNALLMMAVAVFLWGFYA
Description: 1. Assay for SGLT2 Inhibition
Compounds described in the above examples were used for the SGLT2 inhibition assay.
CHOK1 cells expressing human SGLT2 were seeded in 24-well plates at a density of 400,000 cells/well in F-12 nutrient mixture (Ham's F-12) containing 10% fetal bovine serum, 400 μg/ml Geneticin, 50 units/ml sodium penicillin G (Gibco-BRL) and 50 μg/ml streptomycin sulfate. After 2 days of culture at 37° C. in a humidified atmosphere containing 5% CO2, cells were washed once with the assay buffer (137 mM NaCl, 5 mM KCl, 1 mM CaCl2, 1 mM MgCl2, 50 mM Hepes, and 20 mM Tris, pH 7.4) and incubated with 250 μl of the buffer containing test compounds for 10 min at 37° C. Test compounds were dissolved in DMSO. The final concentration of DMSO was 0.5%. The transport reaction was initiated by addition of 50 μl [^14C]-methyl-α-D-glucopyranoside (^14C-AMG) solution (final concentration, 0.5 mM). After incubation for 2 hours at 37° C., the uptake was stopped by aspiration of the incubation mixture, the cells were washed three times with ice-cold PBS. Then, cells were solubilized with 0.3 N NaOH and aliquots were taken for determination of radioactivity by a liquid scintillation counter. Nonspecific AMG uptake was defined as that which occurred in the presence of 100 μM of phlorizin, a specific inhibitor of sodium-dependent glucose cotransporter. Specific uptake was normalized for the protein concentrations measured by the method of Bradford. The 50% inhibitory concentration (IC50) values were calculated from dose-response curves by least square method.

Sprague-Dawley (SD) rats = assay: Urinary glucose excretion test in rats; assay type: in vivo, rat; details: male SD rats; 30 mg/kg by oral gavage; urine collected for 24 hours; daily amount of glucose excreted in urine per individual
Description: 2. Urinary Glucose Excretion Test in Rats Test Compounds:
Compounds described in the above examples were used for the Urinary glucose excretion test in rats.
6-week-old male Sprague-Dawley (SD) rats were housed in individual metabolic cages with free access to food and water from 2 days prior to the experiment. On the morning of the experiment, rats were administered vehicle (0.2% carboxymethyl cellulose solution containing 0.2% Tween80) or test compounds (30 mg/kg) by oral gavage at a volume of 10 ml/kg. Then, urine of the rat was collected for 24 hours, and the urine volume was measured. Subsequently, the glucose concentration in urine was quantified using the enzymatic assay kit and the daily amount of glucose excreted in urine per individual was calculated.

Q: What does the source list for `Cc1cccc2c1c(Cc1ccc(-c3ccccn3)s1)cn2[C@@H]1O[C@H](CO)[C@@H](O)[C@H](O)[C@H]1O` [Example 52, 4-Methyl-3-(5-(2-pyridyl)thiophen-2-yl-methyl)-1-(β-D-gluco-pyranosyl)indole]?
A: IC50 (human SGLT2): 2.8 nM; melting point: 195 to 200 °C

Q: Which IC50 (human SGLT2) does the source give for `OC[C@H]1O[C@@H](n2cc(Cc3ccc(OCCCl)cc3)c3c(F)cccc32)[C@H](O)[C@@H](O)[C@@H]1O` [Example 13, 3-(4-(2-Chloroethyloxy)phenylmethyl)-4-fluoro-1-(β-D-gluco-pyranosyl)indole] here?
A: Its IC50 is 6 nM.

Q: What about the Urinary glucose (Sprague-Dawley (SD) rats) of the same compound?
A: The Urinary glucose was “B (2400 mg>B≧2000 mg)”.
